“And” between values parts separate entries of the source, which are not always exact repeats. Equal values may be shown once. Read-outs that look alike come from different tables or passages of the source.
Assays:
[1] = target: T1, urotensin-II receptor (UTS2R) (Homo sapiens, UniProt Q9UKP6); test: TGFα-shedding assay, concentration-response on UTS2R (endogenous G protein), with or without urantide; format: cell-based
T1 construct: expressed in transfected cells; host or cells: HEK293A
T1 sequence (Q9UKP6 1-389): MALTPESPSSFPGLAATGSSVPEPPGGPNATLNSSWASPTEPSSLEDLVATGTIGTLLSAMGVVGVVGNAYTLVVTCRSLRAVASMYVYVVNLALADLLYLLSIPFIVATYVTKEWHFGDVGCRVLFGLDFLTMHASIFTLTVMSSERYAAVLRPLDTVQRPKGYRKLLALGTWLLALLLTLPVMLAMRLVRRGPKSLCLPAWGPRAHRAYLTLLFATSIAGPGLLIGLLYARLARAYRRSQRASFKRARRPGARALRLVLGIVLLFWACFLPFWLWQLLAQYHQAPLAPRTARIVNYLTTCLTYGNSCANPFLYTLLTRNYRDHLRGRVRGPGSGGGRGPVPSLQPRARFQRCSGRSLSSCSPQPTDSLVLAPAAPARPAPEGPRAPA

UTS2R T304A = test: TGFα-shedding assay on UTS2R mutant T304A; format: cell-based, human; settings: cutoff value set to −1, single replicates
UTS2R T304V = test: TGFα-shedding assay on UTS2R mutant T304V; format: cell-based, human; settings: cutoff value set to −1, single replicates
UTS2R N297A = test: TGFα-shedding assay on UTS2R mutant N297A; format: cell-based, human; settings: cutoff value set to −1, single replicates
UTS2R M134T = test: TGFα-shedding assay on UTS2R mutant M134T; format: cell-based, human; settings: cutoff value set to −1, single replicates
UTS2R D130N = target: T2, UTS2R D130N (Homo sapiens, UniProt Q9UKP6, D130N); test: TGFα-shedding assay on UTS2R mutant D130N; format: cell-based
T2 construct: expressed in transfected cells; host or cells: HEK293A

UTS2R D130G = test: TGFα-shedding assay on UTS2R SNV mutant D130G; format: cell-based, human; settings: cutoff value set to −1, single replicates
[2] = target: T3, UTS2R (β-arrestin 1 recruitment) (Homo sapiens, UniProt Q9UKP6); test: NanoBiT β-arrestin 1 recruitment assay for UTS2R; format: cell-based; settings: β-arrestin 1, Fig. 1c
T3 construct: expressed in transfected cells; host or cells: HEK293A

[3] = tested on: ERK1/2 phosphorylation in HEK293 cells overexpressing UTS2R; test: Western blot of ERK1/2 phosphorylation in HEK293 cells overexpressing UTS2R; format: cell-based, human; settings: application for up to 72 h
[4] = tested on: human induced pluripotent stem cell-derived cardiomyocytes (hiPSC-CMs); test: Field potential recording (MEA) in hiPSC-CMs; format: cell-based; settings: for prolonged FPD: 1 µM remdesivir; for FPD delay: remdesivir with UTS2R antagonist (urantide)
Procedure: Human induced pluripotent stem cell-derived cardiomyocytes (hiPSC-CMs) were purchased from Fujifilm Cellular Dynamics, Inc. (CDI; iCell cardiomyocytes 2.0). To prepare the probe (MED-PG515A, Alpha MED Sciences), the recording areas were coated with fibronectin and dissolved in Dulbecco’s phosphate-buffered saline to create a 50 µg/mL solution. The recording area was covered with 1–2 µL fibronectin solution, and the probes were incubated at 37 °C for at least 1 h. Cells were thawed and suspended in iCell Cardiomyocytes Plating Medium (CDI) and plated onto the probes at a density of 3.5×10^4 cells in a 2 µL plating medium. The cells were incubated at 37 °C in 5% CO2 for 3–4 h before filling each probe with 1 mL iCell cardiomyocytes maintenance medium (CDI), which was used as the culture medium. The medium was changed every 2–3 days, with the cells cultured in the probes for 5–14 days to obtain a sheet of cardiomyocytes with spontaneous and synchronous electrical activity.
FP recording was carried out[35],[60]. Before measuring FPs, iCell cardiomyocyte sheets were equilibrated for at least 4 h in a fresh culture medium using a 5% CO2 incubator at 37 °C. After equilibration, the probes were transferred to the multi-electrode array (MEA) system (MED64, Alpha med Scientific) and incubated in a humidified 5% CO2 atmosphere. The stability and constancy of the waveforms were confirmed by monitoring the signals for at least 30 min. Once the FPs reached a stable state, they were recorded for 10 min at the baseline and then 24, 48, and 72 h after drug treatment. The stock solutions of drugs were prepared in dimethyl sulfoxide (DMSO) or distilled water at a 1000-fold target concentration. The stock solution was diluted in a culture medium to a final concentration of 0.1% DMSO.
The FP duration (FPD) was defined as the duration from the first to the second peak in FP[35]. The FPD was corrected for the beat rate (inter-spike interval (ISI)) with Fridericia’s formula (Eq. 1), which was the primary method of correction in this study:1 (FPDcF=FPD/(ISI/1000)^1/3).

hiPS-CMs = test: Perforated patch-clamp, spontaneous action potentials (APD90) of hiPS-CMs; format: cell-based, human; settings: 10 µM remdesivir, 72 h
[5] = tested on: neonatal rat cardiomyocytes (NRCMs); settings: for Contraction [a.u.]: 48 h
[6] = design: method as in earlier work; settings: intravenous injection, healthy adults; cited from earlier work

T2 sequence (Q9UKP6 whole entry D130N): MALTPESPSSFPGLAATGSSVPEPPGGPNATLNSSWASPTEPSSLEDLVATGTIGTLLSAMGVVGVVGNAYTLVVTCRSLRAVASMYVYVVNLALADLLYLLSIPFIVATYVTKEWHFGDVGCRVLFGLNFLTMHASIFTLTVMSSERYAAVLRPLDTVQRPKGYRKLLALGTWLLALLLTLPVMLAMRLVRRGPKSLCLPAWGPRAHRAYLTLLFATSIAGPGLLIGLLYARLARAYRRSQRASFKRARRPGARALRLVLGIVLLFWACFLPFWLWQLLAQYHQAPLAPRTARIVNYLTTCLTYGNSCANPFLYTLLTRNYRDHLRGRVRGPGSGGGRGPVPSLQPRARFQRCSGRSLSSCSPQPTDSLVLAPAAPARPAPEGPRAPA

**Q.** With `CC(C)OC(=O)[C@H](C)N[P@](=O)(OC[C@H]1O[C@@H](n2ccc(=O)[nH]c2=O)[C@](C)(F)[C@@H]1O)Oc1ccccc1` [sofosbuvir] as the compound, how does the UTS2R activation ([1]; TGFα-shedding, screening 10 μM and response curves (Fig. 1a, Supplementary Fig. 1a)) read?
**A.** The UTS2R activation was “did not activate UTS2R”.

**Q.** Which results are given for `CCC(CC)COC(=O)[C@H](C)N[P@](=O)(OC[C@H]1O[C@@](C#N)(c2ccc3c(N)ncnn23)[C@H](O)[C@@H]1O)Oc1ccccc1` [remdesivir]?
**A.** Emax [1]: 47 ± 1.4%; EC50 ([1]; WT EC50 (Remdesivir), wild-type UTS2R control run alongside the mutant): 17.4 µM and 15.9 µM and 10.7 µM and 14 µM and 10.2 µM and 10.8 µM and 12.4 µM (2×) and 18 µM and 11.6 µM and 18.5 µM; EC50 ([1]; pEC50 (TGFα-shedding response for UTS2R), WT UTS2R, without chimeric Gα protein, HEK293A cells): 12.9 µM; activation at 10 µM ([1]; read-out: UTS2R activation (%AP-TGFα release), compound concentration Log10 (M) -5, without urantide): 15%; activation at 3.3 µM ([1]; read-out: UTS2R activation (%AP-TGFα release), compound concentration Log10 (M) -5.48149, without urantide): 7.9%; ⊿pEC50 compared to WT UTS2R (UTS2R T304A): -1; ⊿pEC50 compared to WT UTS2R (UTS2R T304V): -1; ⊿pEC50 compared to WT UTS2R (UTS2R N297A): -1 and -0.7407; ⊿pEC50 compared to WT UTS2R (UTS2R M134T): -1; receptor activation of D130N mutant (UTS2R D130N; D130N mutation vs WT, TGFα-shedding): significantly upregulated; ⊿pEC50 compared to WT UTS2R (UTS2R D130N; D130N, cutoff value set to −1, single replicates): 0.5051 and 0.5402 and 0.5471 and 0.5928 and 0.4845; ⊿pEC50 compared to WT UTS2R (UTS2R D130G): > 0.3 and 0.2569 and 0.39 and 0.2404 and 0.3246; β-arrestin recruitment response [2]: failed to induce a β-arrestin recruitment response; phosphorylation of ERK1/2 [3]: long-lasting and dose-dependent phosphorylation of ERK1/2; prolonged FPD ([4]; 24 h): 1.32 ± 1.38%; prolonged FPD ([4]; 48 h): 5.60 ± 1.60%; prolonged FPD ([4]; 72 h): 15.57 ± 3.49%; FPD delay ([4]; 24 h): −1.71 ± 1.60%; FPD delay ([4]; 48 h): −0.61 ± 0.11%; APD90 (action potential duration at 90% repolarization) (hiPS-CMs): significantly prolonged; Contraction [a.u.] ([5]; Fig.4a, 1 µM remdesivir, pacing, replicates): 0.1429 a.u. and 0.1533 a.u. and 0.1024 a.u.; Contraction [a.u.] ([5]; Fig.4a, urantide (100 nM) + 1 µM remdesivir): 0.2641 a.u. and 0.2651 a.u. and 0.2715 a.u.; Contraction [a.u.] ([5]; Fig.4b, 1 µM remdesivir, pacing, replicates): 0.1019 a.u. and 0.1158 a.u. and 0.1194 a.u.; Contraction [a.u.] ([5]; Fig.4b, PTX (150 ng/mL) + 1 µM remdesivir): 0.3302 a.u. and 0.3344 a.u. and 0.3245 a.u.; Contraction [a.u.] ([5]; Fig.4b, YM-254890 (1 μM) + 1 µM remdesivir): 0.108 a.u. and 0.1376 a.u. and 0.1361 a.u.; contractility of NRCMs ([5]; chronic remdesivir treatment, constant pacing): reduced contractility; maximum plasma concentration [6]: 9.03 µM
